Laboratory results published in patent publication US11299485B2, “Thiophene derivative and use thereof” (FUJIMOTO CO., LTD., priority 2018, dated 2022).
Marks after values point to notes of the source that are not given here.

Legend:
Format in all cases: cell-based
[1] = test system: human peripheral blood mononuclear cells (PBMC); assay: Cytotoxicity test using human peripheral blood mononuclear cells (PBMC); conditions: LPS, 24 hr
Description: Example 56: Cytotoxicity Test Using Human Peripheral Blood Mononuclear Cells (PBMC)
Peripheral blood of a healthy adult was collected in a Venoject II vacuum blood collection tube (Terumo, containing EDTA/2Na), and then diluted two-fold with an equal volume of OTSUKA NORMAL SALINE (Otsuka Pharmaceutical Co., Ltd.). The diluted blood was mixed with Lymphoprep (AXIS-SHIELD) in half the volume of the diluted blood, dispensed into a 15 mL conical tube, and centrifuged at room temperature for 20 min (2,100 rpm). The mononuclear cells accumulated at the interface between Lymphoprep and plasma was transferred to a 50 mL conical tube, diluted with OTSUKA NORMAL SALINE, and the mononuclear cells suspension was centrifuged at room temperature for 10 min (1,150 rpm) and then the supernatant was removed. The mononuclear cells fraction obtained as a precipitate was suspended in an appropriate amount of medium A, and diluted as appropriate with 0.4% trypan blue solution (Sigma-Aldrich Co. LLC.). The number of viable cells was counted with a hemocytometer (ERMA INC.). It was diluted with medium A such that the value obtained was 5×10^5 cells/mL. On the other hand, 37.5 μL of medium A, 2.5 μL of 0.4 mg/mL test compound solution (DMSO solution 10-fold diluted with medium A), and 10 μL of 10 μg/mL lipopolysaccharide (Sigma-Aldrich Co. LLC.) solution (diluted with medium A) were each added in advance to the same well of a Falcon 96-well flat bottom plate (Corning Incorporated), and the above-mentioned cell suspension was dispensed at 50 μL/well (final concentration of test compound 10 μg/mL). 2.5 μL of DMSO diluted 10-fold with medium A was added to the control well instead of the compound solution. After culturing at 37° C. in a 5% CO2 stream for 24 hr, the cell survival rate was measured using WST-1 (DOJINDO LABORATORIES) or WST-8 kit (KISHIDA CHEMICAL Co., Ltd.) and according to each instruction manual attached thereto.

REC-1 cells = assay: Human mantle cell lymphoma cell line REC-1 proliferation suppression test; conditions: Rec1, 72 h, compound 10 μM, 3 days, WST-8, read-out: cell survival rate (% of control) REC-1
Description: Example 53: Human Mantle Cell Lymphoma Cell Line REC-1 Proliferation Suppression Test
REC-1 cells (ATCC, CRL-3004) were suspended in medium B, and diluted as appropriate with 0.4% trypan blue solution (Sigma-Aldrich Co. LLC.). The number of viable cells was counted with a hemocytometer (Funakoshi Co., Ltd.). A cell suspension obtained by diluting with medium B such that the value obtained was 1.3×10^5 cells/mL was dispensed into a Falcon 96 well flat bottom plate (Corning Incorporated) at 75 μL/well, and culture was started at 37° C. under 5% CO2 stream. The next day, a solution obtained by diluting 4 mM DMSO solution of the test compound 100-fold with medium B was added by 25 μL to each well (final concentration of test compound 10 μM). 25 μL of a solution obtained by diluting DMSO 100-fold with medium B was added to the control well. After culturing at 37° C. in a 5% CO2 stream for 3 days, the cell proliferation activity was measured according to the instruction manual attached to WST-8 Kit (KISHIDA CHEMICAL Co., Ltd.).

TNF-α production = assay: Human TNF-α production suppression test (LPS-stimulated peripheral blood mononuclear cells, ELISA); conditions: PBMC, 24 hr; for inhibition at 10 µg/mL: compound 10 μg/mL, control well = 100, read-out: TNF-α production suppressive rate (%)
Description: Example 50: Human TNF-α Production Suppression Test
Peripheral blood of a healthy adult was collected in a vacuum blood collection tube (Terumo, containing EDTA/2Na), and then diluted two-fold with an equal volume of OTSUKA NORMAL SALINE (Otsuka Pharmaceutical Co., Ltd.). The diluted blood was mixed with Lymphoprep (AXIS-SHIELD) in half the volume of the diluted blood, dispensed into a 15 mL conical tube, and centrifuged at room temperature for 20 min (2,100 rpm). The mononuclear cells accumulated at the interface between Lymphoprep and plasma was transferred to a 50 mL conical tube, diluted with OTSUKA NORMAL SALINE, and the mononuclear cells suspension was centrifuged at room temperature for 10 min (1,150 rpm) and then the supernatant was removed. The mononuclear cells fraction obtained as a precipitate was suspended in an appropriate amount of 10% fetal calf serum (Thermo Fisher Scientific)-containing RPMI1640 medium (Thermo Fisher Scientific, hereinafter abbreviated as medium A), and diluted as appropriate with 0.4% trypan blue solution (Sigma-Aldrich Co. LLC.). The number of viable cells was counted with a hemocytometer (ERMA INC.). It was diluted with medium A such that the value obtained was 5×10^5 cells/mL. On the other hand, 75 μL of medium A, 5 μL of 0.4 mg/mL test compound solution (DMSO solution 10-fold diluted with medium A), and 20 μL of 10 μg/mL lipopolysaccharide (Sigma-Aldrich Co. LLC.) solution (diluted with medium A) were each added in advance to the same well of a Falcon 96-well flat bottom plate (Corning Incorporated), and the above-mentioned cell suspension was dispensed at 0.1 mL/well. 5 μL of DMSO diluted 10-fold with medium A was added to the control well instead of the compound solution. After culturing at 37° C. in a 5% CO2 stream for 24 hr, the culture solution was centrifuged at 4° C., 1,000 rpm for 3 min and the supernatant was recovered. The content of TNF-α in the supernatant was measured using an ELISA kit (Peprotech) according to a conventional method. The amount of TNF-α produced in the well containing the test compound was determined with the amount of TNF-α produced in the control well as 100, and the suppression rate was calculated for each test.

Kasumi-7 cells = assay: Human acute lymphoblastic leukemia cell line Kasumi-7 proliferation suppression test; conditions: 72 h, compound 10 μM, 3 days, WST-8, read-out: cell survival rate (% of control) Kasumi-7
Excerpt: Example 55: Human Acute Lymphoblastic Leukemia Cell Line Kasumi-7 Proliferation Suppression Test
Kasumi-7 cells (NIBIOHN, JCRB1401) were suspended in 20% fetal calf serum (Thermo Fisher Scientific, Inc.)-containing RPMI1640 medium (ATCC, hereinafter abbreviated as medium C), and diluted as appropriate with 0.4% trypan blue solution (Sigma-Aldrich Co. LLC.). The number of viable cells was counted with a hemocytometer (Funakoshi Co., Ltd.). A cell suspension obtained by diluting with medium C such that the value obtained was 1.3×10^5 cells/mL was dispensed into a Falcon 96 well flat bottom plate (Corning Incorporated) at 75 μL/well, and culture was started at 37° C. under 5% CO2 stream. The next day, a solution obtained by diluting 4 mM DMSO solution of the test compound 100-fold with medium C was added by 25 μL to each well (final concentration of test compound 10 μM). 25 μL of a solution obtained by diluting DMSO 100-fold with medium C was added to the control well. After culturing at 37° C. in a 5% CO2 stream for 3 days, the cell proliferation activity was measured according to the instruction manual attached to WST-8 Kit (KISHIDA CHEMICAL Co., Ltd.).

[2] = compound 10 μg/mL, WST-1 or WST-8

SMILES | cell survival rate (% of control) PBMC [1, 2] | viability at 10 µM (REC-1 cells) [%] | inhibition at 10 µg/mL (TNF-α production) [%] | viability at 10 µM (Kasumi-7 cells) [%] | cell survival rate (% of control) PBMC ([1]; 3 μg/mL due to precipitation of compound in medium) | inhibition at 3 µg/mL (TNF-α production; suppressive rate at 3 μg/mL) [%]
O=C1CCC(n2cc(-c3cscc3OCc3cccc(CN4CCOCC4)c3)nn2)C(=O)N1 (stereo not drawn) [compound 39, 3-(4-{4-[3-(morpholinomethyl)benzyloxy]thiophen-3-yl}-1H-1,2,3-triazol-1-yl)piperidine-2,6-dione] | 98 % of control | 24 | 81 | 36 | – | –
O=C1CCC(n2cc(-c3csc(CO)c3)nn2)C(=O)N1 (stereo not drawn) [compound 9, 3-{4-[5-(hydroxymethyl)thiophen-3-yl]-1H-1,2,3-triazol-1-yl}piperidine-2,6-dione] | 129 % of control | 70 | 41 | 90 | – | –
COc1ccc(COc2cscc2-c2cn(C3CCC(=O)NC3=O)nn2)cc1 (stereo not drawn) [compound 31, 3-{4-[4-(4-methoxybenzyloxy)thiophen-3-yl]-1H-1,2,3-triazol-1-yl}piperidine-2,6-dione] | – | 27 | – | 43 | 106** % of control | 82
COCc1ccc(COc2cscc2-c2cn(C3CCC(=O)NC3=O)nn2)cc1 (stereo not drawn) [compound 37, 3-(4-{4-[4-(methoxymethyl)benzyloxy]thiophen-3-yl}-1H-1,2,3-triazol-1-yl)piperidine-2,6-dione] | 99 % of control | 17 | 81 | 38 | – | –
O=C1CCC(n2cc(-c3cscc3Br)nn2)C(=O)N1 (stereo not drawn) [compound 1, 3-[4-(4-bromothiophen-3-yl)-1H-1,2,3-triazol-1-yl]piperidine-2,6-dione] | 106 % of control | 43 | 90 | 65 | – | –
O=C1CCC(n2cc(-c3cscc3OCc3ccc(CN4CCOCC4)cc3)nn2)C(=O)N1 (stereo not drawn) [compound 36, 3-(4-{4-[4-(morpholinomethyl)benzyloxy]thiophen-3-yl}-1H-1,2,3-triazol-1-yl)piperidine-2,6-dione] | 59 % of control | 2 | 98 | 19 | – | –
O=C1CCC(n2cc(-c3scc4c3OCCO4)nn2)C(=O)N1 (stereo not drawn) [compound 10, 3-[4-(2,3-dihydrothieno[3,4-b][1,4]dioxin-5-yl)-1H-1,2,3-triazol-1-yl]piperidine-2,6-dione] | 97 % of control | 57 | 50 | 72 | – | –
COc1cc(-c2cn(C3CCC(=O)NC3=O)nn2)cs1 (stereo not drawn) [compound 20, 3-[4-(5-methoxythiophen-3-yl)-1H-1,2,3-triazol-1-yl]piperidine-2,6-dione] | 104 % of control | 22 | 87 | 53 | – | –
CCOc1cscc1-c1cn(C2CCC(=O)NC2=O)nn1 (stereo not drawn) [compound 17, 3-[4-(4-ethoxythiophen-3-yl)-1H-1,2,3-triazol-1-yl]piperidine-2,6-dione] | 49 % of control | 23 | 92 | 48 | – | –
O=C1CCC(n2cc(-c3cscc3OCc3ccc(Cl)cc3)nn2)C(=O)N1 (stereo not drawn) [compound 43, 3-{4-[4-(4-chlorobenzyloxy)thiophen-3-yl]-1H-1,2,3-triazol-1-yl}piperidine-2,6-dione] | 98 % of control | 23 | 87 | 42 | – | –
COc1cscc1-c1nnn(C2CCC(=O)NC2=O)c1I (stereo not drawn) [compound 49, 3-[5-iodo-4-(4-methoxythiophen-3-yl)-1H-1,2,3-triazol-1-yl]piperidine-2,6-dione] | 102 % of control | 24 | 79 | 56 | – | –
CN(C)Cc1ccc(COc2cscc2-c2cn(C3CCC(=O)NC3=O)nn2)cc1.Cl (stereo not drawn) [compound 46, 3-[4-(4-{4-[(dimethylamino)methyl]benzyloxy}thiophen-3-yl)-1H-1,2,3-triazol-1-yl]piperidine-2,6-dione hydrochloride] | 110 % of control | 23 | 80 | 35 | – | –
COc1c(-c2cn(C3CCC(=O)NC3=O)nn2)csc1Br (stereo not drawn) [compound 23, 3-[4-(5-bromo-4-methoxythiophen-3-yl)-1H-1,2,3-triazol-1-yl]piperidine-2,6-dione] | 104 % of control | 70 | 62 | 76 | – | –
COc1c(-c2cn(C3CCC(=O)NC3=O)nn2)csc1C (stereo not drawn) [compound 15, 3-[4-(4-methoxy-5-methylthiophen-3-yl)-1H-1,2,3-triazol-1-yl]piperidine-2,6-dione] | 105 % of control | 36 | 85 | 60 | – | –
COc1sccc1-c1cn(C2CCC(=O)NC2=O)nn1 (stereo not drawn) [compound 18, 3-[4-(2-methoxythiophen-3-yl)-1H-1,2,3-triazol-1-yl]piperidine-2,6-dione] | 53 % of control | 18 | 100 | 52 | – | –
